Experimental data taken from patent US6998395B2, “Administration of estradiol metabolites for the treatment or prevention of obesity, metabolic syndrome, diabetes, and vascular and renal disorders” (University of Pittsburg,, priority 2001, dated 2006).

Columns and labels:
male ZSF1 rats [1] = assay: Treatment of male ZSF1 rats for 24 weeks with 2-hydroxyestradiol or 2-methoxyestradiol; assay type: in vivo, rat; details: 10 ug/kg/hr, 28 weeks, versus control animals
male ZSF1 rats [2] = assay: as above; assay type: in vivo, rat
Procedure: Male ZSF1 rats were treated continuously for 24 weeks with polyethylene glycol 400 (PEG 400) (Sigma, St. Louis, Mo.) or one of three doses of 2-hydroxyestradiol or 2-methoxyestradiol (Steraloids, Inc. Newport, R.I.) dissolved in PEG 400. The three doses were 1 ug/kg/hr, 3 ug/kg/hr or 10 ug/kg/hr. Female ZSF1 rats were treated continuously for 24 weeks with either PEG 400 or 10 ug/kg/hr of 2-hydroxyestradiol. Female ZSF1 rats were ovarectomized at 11 weeks of age. For all animals, both male and female, treatments with estradiol metabolites were begun at approximately 13 weeks of age. One group of male ZSF1 rats received only PEG 400 but were pair fed to receive the same daily food intake as the male ZSF1 rats treated with 10 ug/kg/hr 2-hydroxyestradiol. Treatment was administered via subcutaneous implanted pumps (Alzet Osmotic Pump, Model 2ML4, Alza Corporation, Palo Alto, Calif.). The study was designed to evaluate treatment effects and dose responses on body weight, food intake, water intake, urine output, urinary protein excretion, cholesterol levels, plasma glucose levels and glucose tolerance.
Stock solutions of both 2-hydroxyestradiol and 2-methoxyestradiol were made by dissolving the required amount of estradiol metabolite in PEG 400. This solution was diluted in PEG 400 to deliver the three required doses based on the mean weight of each treatment group and the stated volume delivery rate for each lot of osmotic pumps in the study. This stock solution was prepared fresh prior to each osmotic pump implantation in each group. The control solution of PEG 400 was created in the same manner.
All treatments were administered via a subcutaneously implanted osmotic pump (Alzet Osmotic Pump, Model 2ML4, Alza Corporation, Palo Alto, Calif.). Each lot of osmotic pumps were delivered with the stated rate of delivery and formulation concentrations were adjusted to ensure delivery of 1,3, or 10 ug/kg/hr based on the stated rate of delivery of each lot. Doses were adjusted for the mean weight of the animals in the treatment group obtained 24 hours prior to implantation of the osmotic minipump.
Animals were anesthetized prior to implantation of an osmotic minipump with halothane and oxygen (2.5 liter/min) delivered by a Fluotec 3 anesthetic device (Ohmeda, Steeton, UK). After lightly anesthetizing each animal, implantation was accomplished by shaving the back and creating a half-inch incision in which to insert the osmotic minipump. The incision was then closed with wound clips that were removed in seven days. Osmotic minipumps were replaced at 33-day intervals and each time a particular animal received an osmotic minipump, the insertion point was changed.
Metabolic cages (Nalgene, Rochester, N.Y.) were used in this study. Animals were placed in metabolic cages for 48 hours. The first 24-hour period was considered an acclimation period, while food and fluid intake and urine volume were measured during the second 24-hour period. Additionally, a tail vein sample was obtained to measure blood glucose, sodium, potassium, albumin and creatinine. The blood was further analyzed to assess creatinine clearance, fractional sodium excretion, fractional potassium excretion and fractional albumin excretion. In addition, the following criteria were also assessed while the animals were in the metabolic cages: body weight, feed intake, water intake, urine output, urinary protein, urinary albumin, urinary glucose, urinary sodium and urinary potassium.
Body weights were assessed 24 hours before pump implantation and those weights were used to calculate the dosage of drug or vehicle to be given to each animal based on the mean body weight of each group. Animals were weighed approximately once every two months prior to being placed in a metabolic cage.
Food intake was measured by filling the food containers with standard powder laboratory food up to a total weight of 250 grams. […]

rats = details: Oparil et al., Circulation 95:1301 (1997); cited from earlier work
[3] = Kernan et al., 2000; cited from earlier work
[4] = male, 10 ug/kg/hr, 24 weeks, versus control animals
[5] = male, 1, 3 or 10 ug/kg/hr s.c. osmotic pump, 24 weeks, versus control

COc1cc2c(cc1O)CC[C@@H]1[C@@H]2CC[C@]2(C)[C@@H](O)CC[C@@H]12 [2-methoxyestradiol, estra-1,3,5 (10)-triene-2-methoxy-3,17-diol (17β)]
Glycated hemoglobin (HbA1c) (FIG. 14) (male ZSF1 rats [1]): lower
Leptin levels (FIG. 11) (male ZSF1 rats [2]; male, 10 ug/kg/hr, 20 weeks, versus control animals): clearly reduced
24-hour urine output (FIG. 13) (male ZSF1 rats [2]; [4]): lower
24-hour water intake (FIG. 12) (male ZSF1 rats [2]; [4]): lower
Blood urea nitrogen (FIG. 10) (male ZSF1 rats [2]; male, 10 ug/kg/hr, 24 weeks, versus control groups): lower
Plasma level of glucose after administration of 2 g/4 ml/kg glucose (oral glucose tolerance test, FIGS. 8 and 9) (male ZSF1 rats [2]; male, 10 ug/kg/hr, treated for 14 to 15 weeks, versus control groups): lower
Body weight gain (FIGS. 4 and 5) (male ZSF1 rats [2]; [5]): less body weight gain
Food intake (male ZSF1 rats [2]; [5]): lower food intake
Urinary protein excretion (FIG. 7) (male ZSF1 rats [2]; male, 1, 3 or 10 ug/kg/hr, after 24 weeks of treatment, versus control animals): lower

C[C@]12CC[C@@H]3c4ccc(O)cc4CC[C@H]3[C@@H]1CC[C@@H]2O [17β-estradiol]
Body weight of rats (rats): reduction
Vascular protection (rats): vascular protection

CC(N)C(O)c1ccccc1 (stereo not drawn) [phenylpropanolamine]
Adverse effect (stroke) [3]: causes stroke
